These results are taken from PubChem BioAssay AID1259411 (Chemical Carcinogenesis Research Information System (CCRIS), 2018).

Activity calls are given as the source filed them. No rule for the calls is given here.

The test system of this data set is rodent carcinogenicity bioassays, tumor incidence. As to the kind of experiment: CCRIS carcinogenicity studies. Put shortly: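 Archive of carcinogenicity, mutagenicity, tumor promotion and tumor inhibition results drawn from journals, NCI reports and other sources, expert-reviewed; covers 1985-2011 and is no longer updated.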

In the case of `CCn1cc(C(=O)O)c(=O)c2ccc(C)nc21`, the carcinogen call was “inactive; negative” (Species: MOUSE, Strain/Sex: B6C3F1/FEMALE, Route: ORAL, Dose: 0, 2000, 4000 PPM IN FEED FOR 103 WK (STUDY DURATION: 104 WK), Dose: 0, 2000, 4000 PPM IN FEED FOR 103 WK (STUDY DURATION: 104 WK)); “equivocal” (Species: MOUSE, Strain/Sex: B6C3F1/MALE, Route: ORAL, Dose: 0, 2000, 4000 PPM IN FEED FOR 103 WK (STUDY DURATION: 104 WK), Dose: 0, 2000, 4000 PPM IN FEED FOR 103 WK (STUDY DURATION: 104 WK), Tumor Site: Type of Lesion: INTEGUMENTARY SYSTEM (SUBCUTANEOUS TISSUE): FIBROMA OR FIBROSARCOMA); “active; positive” (Species: RAT, Strain/Sex: F344/FEMALE, Route: ORAL, Dose: 0, 2000, 4000 PPM IN FEED FOR 103 WK (STUDY DURATION: 104 WK), Dose: 0, 2000, 4000 PPM IN FEED FOR 103 WK (STUDY DURATION: 104 WK), Tumor Site: Type of Lesion: CLITORAL GLAND: ADENOMA, ADENOMA OR PAPILLOMA, ADENOMA OR PAPILLOMA OR CARCINOMA OR PAPILLARY CARCINOMA); “active; positive” (Species: RAT, Strain/Sex: F344/MALE, Route: ORAL, Dose: 0, 2000, 4000 PPM IN FEED FOR 103 WK (STUDY DURATION: 104 WK), Dose: 0, 2000, 4000 PPM IN FEED FOR 103 WK (STUDY DURATION: 104 WK), Tumor Site: Type of Lesion: PREPUTIAL GLAND: ADENOMA, ADENOMA OR PAPILLOMA, CARCINOMA).

Consider `Cc1ccc(C)c(OCCCC(C)(C)C(=O)O)c1`, for which, under “Species: RAT, Strain/Sex: STRAIN-CD/MALE, Route: ORAL, Dose: 30, 300 MG/KG IN DIET FOR 2 YR, Tumor Site: Type of Lesion: LIVER: NEOPLASTIC NODULE, CARCINOMA, TESTES: INTERSTITIAL CELL TUMOR”, the carcinogen call was “active; positive”.

Consider `O=S(=O)(O)c1ccc(N=Nc2cc(S(=O)(=O)O)c3ccccc3c2O)c2ccccc12`, for which the carcinogen call (Species: MOUSE, Strain/Sex: B6C3F1/FEMALE, Route: ORAL, Dose: 0, 3000, 6000 PPM IN DIET, Dose: 0, 3000, 6000 PPM IN DIET) is “inactive; negative”; the carcinogen call (Species: MOUSE, Strain/Sex: B6C3F1/MALE, Route: ORAL, Dose: 0, 3000, 6000 PPM IN DIET, Dose: 0, 3000, 6000 PPM IN DIET) was “inactive; negative”; the carcinogen call (Species: RAT, Strain/Sex: F344/FEMALE, Route: ORAL, Dose: 0, 12500, 25000 PPM IN DIET, Dose: 0, 12500, 25000 PPM IN DIET) was “inactive; negative”; the carcinogen call (Species: RAT, Strain/Sex: F344/MALE, Route: ORAL, Dose: 0, 6000, 12500 PPM IN DIET, Dose: 0, 6000, 12500 PPM IN DIET) was “inactive; negative”; the carcinogen call (Species: RAT, Strain/Sex: WISTAR/FEMALE, Route: ORAL, Dose: 0, 100, 400, 1200 MG/KG/D IN BASAL DIET TO PUPS OF PARENTS EXPOSED TO THE SAME DOSE LEVELS FOR 9 WK PRIOR TO MATING AND, Dose: 0, 100, 400, 1200 MG/KG/D IN BASAL DIET TO PUPS OF PARENTS EXPOSED TO THE SAME DOSE LEVELS FOR 9 WK PRIOR TO MATING AND) was “inactive; negative”; the carcinogen call (Species: RAT, Strain/Sex: WISTAR/MALE, Route: ORAL, Dose: 0, 100, 400, 1200 MG/KG/D IN BASAL DIET TO PUPS OF PARENTS EXPOSED TO THE SAME DOSE LEVELS FOR 9 WK PRIOR TO MATING AND, Dose: 0, 100, 400, 1200 MG/KG/D IN BASAL DIET TO PUPS OF PARENTS EXPOSED TO THE SAME DOSE LEVELS FOR 9 WK PRIOR TO MATING AND) is “inactive; negative”.

As to `Nc1ccc(N=Nc2ccccc2)c(N)c1`, for the setting “Species: MOUSE, Route: ORAL, Tumor Site: Type of Lesion: HEMATOPOIETIC SYSTEM (LEUKEMIA), LYMPHATIC SYSTEM: LYMPHOMA, LIVER, Tumor Site: Type of Lesion: HEMATOPOIETIC SYSTEM (LEUKEMIA), LYMPHATIC SYSTEM: LYMPHOMA, LIVER”, the carcinogen call was “active; positive”.

`CCCCC1C(=O)N(c2ccccc2)N(c2ccccc2)C1=O`: the carcinogen call is “inactive; negative” (Species: MOUSE, Strain/Sex: B6C3F1/FEMALE, Route: GAVAGE, Dose: 0, 150, 300 MG/KG IN CORN OIL 5 D/WK FOR 103 WK (STUDY DURATION: 107 WK), Dose: 0, 150, 300 MG/KG IN CORN OIL 5 D/WK FOR 103 WK (STUDY DURATION: 107 WK)); “active; positive” (Species: MOUSE, Strain/Sex: B6C3F1/MALE, Route: GAVAGE, Dose: 0, 150, 300 MG/KG IN CORN OIL 5 D/WK FOR 103 WK (STUDY DURATION: 107 WK), Dose: 0, 150, 300 MG/KG IN CORN OIL 5 D/WK FOR 103 WK (STUDY DURATION: 107 WK), Tumor Site: Type of Lesion: LIVER: HEPATOCELLULAR ADENOMA, HEPATOCELLULAR ADENOMA OR CARCINOMA); “active; positive” (Species: RAT, Strain/Sex: F344/FEMALE, Route: GAVAGE, Dose: 0, 50, 100 MG/KG IN CORN OIL 5 D/WK FOR 103 WK (STUDY DURATION: 103 WK), Dose: 0, 50, 100 MG/KG IN CORN OIL 5 D/WK FOR 103 WK (STUDY DURATION: 103 WK), Tumor Site: Type of Lesion: KIDNEY: TRANSITIONAL EPITHELIAL CARCINOMA, TUBULAR CELL ADENOMA); “equivocal” (Species: RAT, Strain/Sex: F344/MALE, Route: GAVAGE, Dose: 0, 50, 100 MG/KG IN CORN OIL 5 D/WK FOR 103 WK (STUDY DURATION: 103 WK), Dose: 0, 50, 100 MG/KG IN CORN OIL 5 D/WK FOR 103 WK (STUDY DURATION: 103 WK), Tumor Site: Type of Lesion: KIDNEY: TUBULAR CELL ADENOMA, TUBULAR CELL ADENOMA OR CARCINOMA).

Consider `CCCN(CCC)N=O`, for which the carcinogen call runs as follows: (Species: HAMSTER, Route: SUBCUTANEOUS, Tumor Site: Type of Lesion: RESPIRATORY TRACT, LUNG) “active; positive”; (Species: RAT, Route: ORAL, Tumor Site: Type of Lesion: LIVER) “active; positive”; (Species: RAT, Route: SUBCUTANEOUS, Tumor Site: Type of Lesion: NASAL CAVITY, LIVER) “active; positive”.

For the molecule `c1ccc2c(c1)ccc1[nH]c3ccc4ccccc4c3c12`, the carcinogen call reads like this: (Species: HAMSTER, Route: INTRATRACHEAL, Tumor Site: Type of Lesion: LUNG) “active; positive”; (Species: MOUSE, Route: DERMAL, Tumor Site: Type of Lesion: INTEGUMENTARY SYSTEM (SKIN), LIVER) “active; positive”; (Species: MOUSE, Route: INTRAVENOUS, Tumor Site: Type of Lesion: LUNG) “active; positive”; (Species: MOUSE, Route: ORAL, Tumor Site: Type of Lesion: FORESTOMACH, LIVER, LUNG, Tumor Site: Type of Lesion: FORESTOMACH, LIVER, LUNG) “active; positive”; (Species: MOUSE, Route: SUBCUTANEOUS, Tumor Site: Type of Lesion: INJECTION SITE, LUNG) “active; positive”; (Species: MOUSE, Strain/Sex: HSD:ICR(BR)/FEMALE, Route: DERMAL, Dose: 0, 50 NMOL IN 50 µL ACETONE 2/WK FOR 99 WK (STUDY DURATION: 99 WK), Tumor Site: Type of Lesion: SKIN: TUMOR, LIVER: TUMOR) “active; positive”. Besides, the carcinogen call (Species: MOUSE, Strain/Sex: STRAIN-A/MALE, Route: INTRAPERITONEAL, Dose: 0, 5, 10, 20, 40 MG/KG BW IN 0.2 ML TRICAPRYLIN ONCE (STUDY DURATION: 8 MO), Dose: 0, 5, 10, 20, 40 MG/KG BW IN 0.2 ML TRICAPRYLIN ONCE (STUDY DURATION: 8 MO), Tumor Site: Type of Lesion: LUNG: ADENOMA) was “active; positive” and the carcinogen call (Species: Mouse, Strain/Sex: XVIInc/Z homozygous/Female (50 or 162/Group), Route: Subcutaneous, Dose: 3 x 0.3 mg (162 animals) or 34 x 0.05 mg (50 animals) dissolved in olive oil, Tumor Site: Type of Lesion: Liver: Hepatoma (100%), Sarcoma (70%)) was “active; positive (historical controls only; reported incidence of liver tumors <2% at 2”.

Turning to `CCOC(=O)CC(SP(=S)(OC)OC)C(=O)OCC` (stereo not drawn), the carcinogen call (Species: MOUSE, Strain/Sex: B6C3F1/FEMALE, Route: ORAL, Dose: 0, 8000, 16000 PPM IN DIET, Dose: 0, 8000, 16000 PPM IN DIET) is “inactive; negative”; the carcinogen call (Species: MOUSE, Strain/Sex: B6C3F1/MALE, Route: ORAL, Dose: 0, 8000, 16000 PPM IN DIET, Dose: 0, 8000, 16000 PPM IN DIET) was “inactive; negative”; the carcinogen call (Species: RAT, Strain/Sex: F344/FEMALE, Route: ORAL, Dose: 0, 2000, 4000 PPM IN DIET, Dose: 0, 2000, 4000 PPM IN DIET) was “inactive; negative”; the carcinogen call (Species: RAT, Strain/Sex: F344/MALE, Route: ORAL, Dose: 0, 2000, 4000 PPM IN DIET, Dose: 0, 2000, 4000 PPM IN DIET) is “inactive; negative”; the carcinogen call (Species: RAT, Strain/Sex: OSBORNE-MENDEL/FEMALE, Route: ORAL, Dose: 0, 4700, 8150 PPM IN DIET, TWA FOR 80 WK, Dose: 0, 4700, 8150 PPM IN DIET, TWA FOR 80 WK) is “inactive; negative”; the carcinogen call (Species: RAT, Strain/Sex: OSBORNE-MENDEL/MALE, Route: ORAL, Dose: 0, 4700, 8150 PPM IN DIET, TWA FOR 80 WK, Dose: 0, 4700, 8150 PPM IN DIET, TWA FOR 80 WK) was “inactive; negative”.
